The target in this experiment is T1, mouse OR-I7 (Mus musculus, UniProt Q9QWU6).
T1 sequence (Q9QWU6 1-327): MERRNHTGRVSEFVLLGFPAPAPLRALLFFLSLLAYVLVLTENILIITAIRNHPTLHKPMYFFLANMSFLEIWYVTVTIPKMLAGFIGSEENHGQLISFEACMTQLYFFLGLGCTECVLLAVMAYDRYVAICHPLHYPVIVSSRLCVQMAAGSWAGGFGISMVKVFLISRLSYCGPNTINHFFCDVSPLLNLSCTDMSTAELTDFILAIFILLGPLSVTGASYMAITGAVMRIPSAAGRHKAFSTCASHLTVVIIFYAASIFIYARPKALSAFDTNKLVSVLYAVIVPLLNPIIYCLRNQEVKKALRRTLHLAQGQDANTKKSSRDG
The experiment is described as follows: GloSensor cAMP assay in Hana3A cells expressing recombinant receptor. The class given is cell-based.

One may read the EC50 as the concentration at which the effect is half-maximal.

With `CCCCCCC(F)(F)C=O` [compound 2, 2,2-difluorooctanal], the EC50 is roughly 10 µM.

As to `CCCCCCCC=O` [compound 1, octanal], the EC50 was roughly 1.5 µM.
